PMC6018403 (Frontiers in Pharmacology, 2018)
Where two headings read alike, the source gives them in different places.

Test: Multi-component pharmacokinetic study of GQD, GQD-GC and single herb extracts in rats (plasma, LC/MS/MS)
Type: in vivo, Sprague-Dawley rats
Experimental: Male Sprague-Dawley rats (220–250 g) were used for PK study, and the details were described in Supplemental Data. All procedures were in accordance with the National Institutes of Health Guide for the Care and Use of Laboratory Animals.
For PK study of GQD and its component herbs, rats were randomly divided into six groups (n = 10 for each group) before oral administration.
All blood samples were immediately centrifuged at 6,000 rpm (4°C) for 20 min to obtain plasma. The plasma samples were stored at −80°C.
A Finnigan TSQ Quantum triple quadrupole mass spectrometer was connected to a Surveyor HPLC via ESI interface (ThermoFisher). High purity nitrogen was used as the sheath and auxiliary gas; Ultra-high purity argon was used as the collision gas (1.5 mTorr). Q1 and Q3 quadrupoles were set at unit resolution. […] The column temperature was 40°C. The mobile phase consisted of acetonitrile containing 2% (v/v) methanol (A) and water containing 0.1% (v/v) formic acid (B). […] An aliquot of 5 μL was injected for analysis. UV spectra were obtained by scanning from 200 to 400 nm. The mass spectrometer was operated in the (+)-ESI mode. The optimized parameters were as follows: sheath gas (N2), 50 arb; auxiliary gas (N2), 5 arb; spray voltage, 4.0 kV; capillary temperature, 330°C; collision energy, see Table S1. Analytes were detected in the selected reaction monitoring (SRM) mode. Data were processed by Xcalibur 2.0.7 software (ThermoFisher).
LC/MS/MS calibration and quantitation data were processed with Xcalibur 2.0.7 software (ThermoFisher). The maximal plasma concentrations (Cmax) and their time of occurrence (Tmax) were obtained directly from the measured data. Other pharmacokinetic parameters were calculated by non-compartment or compartment models using WinNonlin® software (v6.1, Pharsight). Unless otherwise stated, results were expressed as the mean ± SD. Statistical significance in differences of the means was determined by Student's t–test, with a significance level of P < 0.05.
Herbal materials and extracts.
The four component herbs, Puerariae Lobatae Radix (Ge-Gen, GG), Scutellariae Radix (Huang-Qin, HQ), Coptidis Rhizoma (Huang-Lian, HL), and Glycyrrhizae Radix et Rhizoma Praeparata cum Melle (Gan-Cao, GC) were purchased from Tianheng Pharmacy. GQD was prepared by decocting the four component herbs […]
pre-extraction of Ge-Gen using 200 mL of water for 0.5 h. The decoctions were combined, filtered, and concentrated in vacuum at 50 °C. GQD-GC was prepared using the same procedure, except that Gan-Cao was removed from the formula. Final concentration of the GQD-GC extract was equivalent to 1.0 g of the crude drugs per mL. For single herb extracts, the herbs were decocted in 8-fold volume of water for […]
Final concentrations of the extracts were 1.0 g/mL for Ge-Gen, and 0.5 g/mL for Huang-Qin, Huang-Lian and […]
For pharmacokinetic study, Male Sprague-Dawley rats (220-250 g) were obtained from the Laboratory Animal Center of Peking University Health Science Center. The […]
The rats had free access to tap water and soy-free custom diet (Ke’ao Xieli Co.). All procedures were in accordance with the National Institutes of Health Guide for the Care and Use of Laboratory Animals […]
Experimental details for the PK study
1. Preparation of internal standard solution, calibration standard solutions, and quality control solutions […]
internal standard solution. Reference standard compounds were dissolved in the internal standard solution to prepare individual stock solutions (1.0 mg/mL). These […]
each compound. The standard solution was then serially diluted to obtain calibration […]
Quality control stock solutions were prepared at three concentration levels as high QC (HQC), middle QC (MQC), and low QC (LQC), based on linear ranges of the analytes.
2.1. Sample preparation for pharmacokinetic study
The calibration standard and quality control solutions for pharmacokinetic study were […]

[1] = male, Sprague-Dawley, rat, in vivo, po
[2] = male, Sprague-Dawley, rat, in vivo, po, 3.54 g/kg
[3] = male, Sprague-Dawley, rat, in vivo, po, 3.54 g/kg, AUClast
[4] = male, Sprague-Dawley, rat, in vivo, po, 16.5 g/kg
[5] = male, Sprague-Dawley, rat, in vivo, po, 16.5 g/kg, AUClast
[6] = male, Sprague-Dawley, rat, in vivo, po, 18.9 g/kg
[7] = male, Sprague-Dawley, rat, in vivo, po, 18.9 g/kg, AUClast
[8] = male, Sprague-Dawley, rat, plasma, po, 3.54 g/kg, HL (Huang-Lian) group: rats, oral extract 3.54 g/kg, plasma, read-out: AUClast
[9] = male, Sprague-Dawley, rat, plasma, po, 16.5 g/kg, GQD-GC group (GQD without Gan-Cao): rats, oral 16.5 g/kg, plasma, read-out: AUClast
[10] = male, Sprague-Dawley, rat, plasma, po, 18.9 g/kg, GQD group: rats, oral GQD extract 18.9 g/kg, plasma, read-out: AUClast
[11] = male, Sprague-Dawley, rat, GQD group: rats, oral GQD extract 18.9 g/kg, plasma, read-out: Cmax
[12] = male, Sprague-Dawley, rat, GQD group: rats, oral GQD extract 18.9 g/kg, plasma, read-out: T1/2 (converted)
[13] = male, Sprague-Dawley, rat, GQD group: rats, oral GQD extract 18.9 g/kg, plasma, read-out: Tmax
[14] = male, Sprague-Dawley, rat, GQD-GC group (GQD without Gan-Cao): rats, oral 16.5 g/kg, plasma, read-out: Cmax
[15] = male, Sprague-Dawley, rat, GQD-GC group (GQD without Gan-Cao): rats, oral 16.5 g/kg, plasma, read-out: T1/2 (converted)
[16] = male, Sprague-Dawley, rat, GQD-GC group (GQD without Gan-Cao): rats, oral 16.5 g/kg, plasma, read-out: Tmax
[17] = male, Sprague-Dawley, rat, HL (Huang-Lian) group: rats, oral extract 3.54 g/kg, plasma, read-out: Cmax
[18] = male, Sprague-Dawley, rat, HL (Huang-Lian) group: rats, oral extract 3.54 g/kg, plasma, read-out: T1/2 (converted)
[19] = male, Sprague-Dawley, rat, HL (Huang-Lian) group: rats, oral extract 3.54 g/kg, plasma, read-out: Tmax
[20] = male, Sprague-Dawley, rat, in vivo, po, 2.36 g/kg

Compound | increase of AUClast in GQD group compared with the Huang-Lian group [1] | Cmax [2] | Tmax [2] | half-life [2] | AUC(0-t) [3] | Cmax [4] | Tmax [4] | half-life [4] | AUC(0-t) [5] | AUClast [6] | Cmax [6] | Tmax [6] | half-life [6] | AUC(0-t) [7] | AUC(0-t) [8] | AUC(0-t) [9] | AUC(0-t) [10] | Cmax [11] | half-life [12] | Tmax [13] | other results
c1c2c(cc3c1OCO3)-c1cc3ccc4c(c3c[n+]1CC2)OCO4 [Compound 21, coptisine] | 49.1% | 5.33 ± 1.35 ng/mL | 0.68 ± 0.65 h | 3.83 ± 1.34 h | 73.2 ± 21.2 ng·h/mL | 8.39 ± 1.3 ng/mL | 0.69 ± 0.76 h | 3.87 ± 0.27 h | 167 ± 24.4 ng·h/mL | 109.2 ± 73.23 ng·h/mL | 6.56 ± 4.03 ng/mL | 0.74 ± 0.32 h | 5.2 ± 1.37 h | > 100 ng·h/mL |  |  |  |  |  |  | 
COc1cc2c(cc1OC)-c1cc3ccc4c(c3c[n+]1CC2)OCO4 [Compound 22, epiberberine] |  |  |  |  |  |  |  |  |  |  |  |  |  |  | 16.7 ± 9.45 ng·h/mL | 26.4 ± 11 ng·h/mL | 29.4 ± 21.3 ng·h/mL | 7.21 ± 3.62 ng/mL | 4.84 ± 0.13 h | 0.58 ± 0.12 h | Cmax [14]: 9.35 ± 1.71 ng/mL; half-life [15]: 4.97 ± 0.85 h; Tmax [16]: 0.54 ± 0.17 h; Cmax [17]: 3.53 ± 0.34 ng/mL; half-life [18]: 4.34 ± 0.18 h; Tmax [19]: 0.58 ± 0.23 h
COc1cc2c(cc1O)CC[n+]1cc3c(OC)c(OC)ccc3cc1-2 [Compound 23, jatrorrhizine] |  |  |  |  |  |  |  |  |  |  |  |  |  |  | 119 ± 52.4 ng·h/mL | 105 ± 34.2 ng·h/mL | 195 ± 25.7 ng·h/mL | 8.54 ± 0.05 ng/mL | 6.97 ± 1.77 h | 0.72 ± 0.11 h | AUC(0-t) (male, Sprague-Dawley, rat, plasma, po, 3.54 g/kg, Huang-Lian group: rats, oral 3.54 g/kg, plasma, read-out: AUClast): 119 ± 52.4 ng·h/mL; AUC(0-t) (male, Sprague-Dawley, rat, plasma, po, 16.5 g/kg, GQD−GC group: rats, oral 16.5 g/kg, plasma, read-out: AUClast): 105 ± 34.2 ng·h/mL; AUC(0-t) (male, Sprague-Dawley, rat, plasma, po, 18.9 g/kg, GQD group: rats, oral GQD 18.9 g/kg (1.5-fold of clinical dosage), plasma, read-out: AUClast): > 100 ng·h/mL; Cmax [14]: 9.14 ± 0.82 ng/mL; half-life [15]: 3.12 ± 0.13 h; Tmax [16]: 0.63 ± 0.32 h; Cmax [17]: 6.6 ± 0.59 ng/mL; half-life [18]: 5.15 ± 1.74 h; Tmax [19]: 0.61 ± 0.11 h; increase of AUClast in GQD group compared with the Huang-Lian group (rats, oral, GQD vs Huang-Lian): 63.6%
COc1cc2c(cc1OC)-c1cc3ccc(OC)c(OC)c3c[n+]1CC2 [Compound 25, palmatine] | 32.7% | 5.96 ± 1.35 ng/mL | 0.25 ± 1.25 h | 3.25 ± 2.43 h | 51.5 ± 27.8 ng·h/mL | 4.75 ± 10.2 ng/mL | 0.26 ± 0.15 h | 3.03 ± 2.36 h | 43.4 ± 17 ng·h/mL |  | 17.1 ± 2.98 ng/mL | 0.17 ± 0.03 h | 1.62 ± 1.82 h | 68.3 ± 39.2 ng·h/mL |  |  |  |  |  |  | 
O=C1C[C@@H](c2ccc(O[C@@H]3O[C@H](CO)[C@@H](O)[C@H](O)[C@H]3O)cc2)Oc2cc(O)ccc21 [Compound 26, liquiritin] |  |  |  |  |  |  |  |  |  | 416.94 ± 210.31 ng·h/mL | 20.8 ± 1.86 ng/mL | 2.5 ± 4.76 h | 12.1 ± 1.16 h | > 300 ng·h/mL |  |  |  |  |  |  | Cmax [20]: 18.6 ± 7.53 ng/mL; T1/2 [20]: 7.84 ± 0.38 h; Tmax [20]: 1.34 ± 3 h; AUC(0-t) (male, Sprague-Dawley, rat, in vivo, po, 2.36 g/kg, AUClast): 237 ± 92.4 ng·h/mL; plasma concentrations, effect of GQD compared with Gan-Cao (rat, in vivo, po): improved
